Test results: patent EP4667458A1 (Kanaph Therapeutics Inc., priority 2023, dated 2024)

target: T1, KRAS^G12C::SOS1 (Homo sapiens, UniProt Q07889); experiment: KRAS G12C::SOS1 protein-protein interaction (PPI) inhibition assay (HTRF binding kit); conditions: not given
T1 sequence (Q07889 1-1333): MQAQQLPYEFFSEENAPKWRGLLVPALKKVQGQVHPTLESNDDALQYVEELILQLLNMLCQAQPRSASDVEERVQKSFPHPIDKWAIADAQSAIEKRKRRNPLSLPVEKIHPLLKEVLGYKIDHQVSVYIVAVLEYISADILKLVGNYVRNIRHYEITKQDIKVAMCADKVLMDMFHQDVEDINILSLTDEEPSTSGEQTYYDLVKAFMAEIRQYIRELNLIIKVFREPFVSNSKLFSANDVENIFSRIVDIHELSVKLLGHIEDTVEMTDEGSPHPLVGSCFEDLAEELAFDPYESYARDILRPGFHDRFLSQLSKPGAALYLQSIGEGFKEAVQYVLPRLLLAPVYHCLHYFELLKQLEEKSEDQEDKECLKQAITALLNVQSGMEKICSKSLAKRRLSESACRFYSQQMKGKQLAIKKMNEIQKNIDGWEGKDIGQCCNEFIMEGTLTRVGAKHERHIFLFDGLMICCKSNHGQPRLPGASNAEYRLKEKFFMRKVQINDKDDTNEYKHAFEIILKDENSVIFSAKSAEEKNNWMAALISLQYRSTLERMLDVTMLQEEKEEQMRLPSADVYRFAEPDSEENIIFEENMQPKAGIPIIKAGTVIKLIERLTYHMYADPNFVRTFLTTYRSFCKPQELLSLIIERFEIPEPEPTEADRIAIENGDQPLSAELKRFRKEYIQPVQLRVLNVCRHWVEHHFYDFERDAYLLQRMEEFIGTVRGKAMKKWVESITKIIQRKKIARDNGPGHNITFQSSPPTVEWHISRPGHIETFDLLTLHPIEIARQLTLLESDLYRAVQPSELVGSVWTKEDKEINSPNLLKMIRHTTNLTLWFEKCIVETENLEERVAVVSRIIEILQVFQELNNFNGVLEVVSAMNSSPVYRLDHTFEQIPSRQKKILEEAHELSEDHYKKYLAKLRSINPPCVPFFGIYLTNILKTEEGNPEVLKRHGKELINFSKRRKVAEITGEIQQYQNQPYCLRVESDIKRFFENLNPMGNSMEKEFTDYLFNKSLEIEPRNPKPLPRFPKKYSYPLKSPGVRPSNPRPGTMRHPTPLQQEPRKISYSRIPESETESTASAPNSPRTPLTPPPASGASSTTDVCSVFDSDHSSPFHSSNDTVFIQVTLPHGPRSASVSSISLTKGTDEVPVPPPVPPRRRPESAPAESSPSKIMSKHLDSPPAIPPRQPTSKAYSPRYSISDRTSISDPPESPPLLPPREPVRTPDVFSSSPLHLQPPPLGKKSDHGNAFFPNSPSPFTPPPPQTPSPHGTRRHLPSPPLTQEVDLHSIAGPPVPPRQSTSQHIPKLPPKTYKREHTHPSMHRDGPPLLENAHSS

Row | Compound | IC50 [nM]
1 | CNCc1ccccc1-c1ccc([C@@H](C)NC(=O)c2nn(-c3ccccc3F)c(=O)c3ccsc23)s1 [Example 269, 5-(2-fluorophenyl)-N-[(1R)-1-[5-[2-(methylaminomethyl)phenyl]-2-thienyl]ethyl]-4-oxo-thieno[2,3-d]pyridazine-7-carboxamide] | < 1000
2 | CC(C)c1cccc([C@@H](C)NC(=O)c2ccc(=O)n(-c3ccccc3)n2)c1 [Example 201, N-[(1R)-1-(3-isopropylphenyl)ethyl]-6-oxo-1-phenyl-pyridazine-3-carboxamide] | < 1000
3 | C[C@@H](NC(=O)c1ccc(=O)n(C)n1)c1cc(N)cc(C(F)(F)F)c1 [Example 228, N-[(1R)-1-[3-amino-5-(trifluoromethyl)phenyl]ethyl]-1-methyl-6-oxo-pyridazine-3-carboxamide] | < 1000
4 | C[C@@H](NC(=O)C1=NN(c2ccccc2)C(=O)CC1)c1cc(N)cc(C(F)(F)F)c1 [Example 264, N-[(1R)-1-[3-amino-5-(trifluoromethyl)phenyl]ethyl]-6-oxo-1-phenyl-4,5-dihydropyridazine-3-carboxamide] | < 1000
5 | C[C@@H](NC(=O)c1ccc(=O)n(-c2cccc(C(=O)NCCN(C)C)c2)n1)c1cc(N)cc(C(F)(F)F)c1 [Example 251, N-[(1R)-1-[3-amino-5-(trifluoromethyl)phenyl]ethyl]-1-[3-[2-(dimethylamino)ethylcarbamoyl]phenyl]-6-oxo-pyridazine-3-carboxamide] | < 1000
6 | C[C@@H](NC(=O)c1ccc(=O)n(CC2CC2)n1)c1cc(N)cc(C(F)(F)F)c1 [Example 224, N-[(1R)-1-[3-amino-5-(trifluoromethyl)phenyl]ethyl]-1-(cyclopropylmethyl)-6-oxo-pyridazine-3-carboxamide] | < 1000
7 | COc1ccc(-n2cc(C(=O)N[C@H](C)c3cccc(C(F)(F)CO)c3F)ccc2=O)c(F)c1 [Example 179, N-[(1R)-1-[3-(1,1-difluoro-2-hydroxy-ethyl)-2-fluoro-phenyl]ethyl]-1-(2-fluoro-4-methoxyphenyl)-6-oxo-pyridine-3-carboxamide] | < 1000
8 | C[C@@H](NC(=O)c1nn(-c2ccccc2F)c(=O)cc1Nc1ccccc1)c1cc(N)cc(C(F)(F)F)c1 [Example 210, N-[(1R)-1-[3-amino-5-(trifluoromethyl)phenyl]ethyl]-4-anilino-1-(2-fluorophenyl)-6-oxo-pyridazine-3-carboxamide] | < 1000
9 | C[C@@H](NC(=O)c1ccc(=O)n(-c2cccnc2F)c1)c1cccc(C(F)(F)CO)c1F [Example 147, N-[(1R)-1-[3-(1,1-difluoro-2-hydroxy-ethyl)-2-fluoro-phenyl]ethyl]-1-(2-fluoro-3-pyridyl)-6-oxo-pyridine-3-carboxamide] | < 1000
10 | C[C@@H](NC(=O)c1ccc(=O)[nH]n1)c1cc(N)cc(C(F)(F)F)c1 [Example 221, N-[(1R)-1-[3-amino-5-(trifluoromethyl)phenyl]ethyl]-6-oxo-1H-pyridazine-3-carboxamide] | < 1000
11 | C[C@H](O)c1cccc(-n2nc(C(=O)N[C@H](C)c3cc(N)cc(C(F)(F)F)c3)ccc2=O)c1 [Example 174, N-[(1R)-1-[3-amino-5-(trifluoromethyl)phenyl]ethyl]-1-[3-[(1S)-1-hydroxyethyl]phenyl]-6-oxo-pyridazine-3-carboxamide] | < 1000
12 | COc1ccc(-n2cc(C(=O)N[C@H](C)c3cc(N)cc(C(F)(F)F)c3)ccc2=O)cc1 [Example 199, N-[(1R)-1-[3-amino-5-(trifluoromethyl)phenyl]ethyl]-1-(4-methoxyphenyl)-6-oxo-pyridine-3-carboxamide] | < 1000
13 | C[C@@H](NC(=O)c1ccc(=O)n(-c2cccc(C(=O)N3CCCC3)c2)n1)c1cc(N)cc(C(F)(F)F)c1 [Example 197, N-[(1R)-1-[3-amino-5-(trifluoromethyl)phenyl]ethyl]-6-oxo-1-[3-(pyrrolidine-1-carbonyl)phenyl]pyridazine-3-carboxamide] | < 1000
14 | C[C@@H](NC(=O)c1ccc(=O)n(-c2ccccc2F)c1)c1cc(N)cc(C(F)(F)F)c1 [Example 218, N-[(1R)-1-[3-amino-5-(trifluoromethyl)phenyl]ethyl]-1-(2-fluorophenyl)-6-oxo-pyridine-3-carboxamide] | < 1000
15 | C[C@@H](NC(=O)c1ccc(=O)n(Cc2ccccc2)n1)c1cc(N)cc(C(F)(F)F)c1 [Example 227, N-[(1R)-1-[3-amino-5-(trifluoromethyl)phenyl]ethyl]-1-benzyl-6-oxo-pyridazine-3-carboxamide] | < 1000
16 | COCc1cccc(-n2nc(C(=O)N[C@H](C)c3cc(N)cc(C(F)(F)F)c3)ccc2=O)c1 [Example 205, N-[(1R)-1-[3-amino-5-(trifluoromethyl)phenyl]ethyl]-1-[3-(methoxymethyl)phenyl]-6-oxo-pyridazine-3-carboxamide] | < 1000

The next lines start with the values.

Row | IC50 [nM] | Compound
17 | < 1000 | CNCc1ccc(Cl)cc1-c1ccc([C@@H](C)NC(=O)c2ccc(=O)n(C3CCOCC3)n2)s1 [Example 411]
18 | < 1000 | C[C@@H](NC(=O)c1ccc(=O)n(-c2cccc(-c3cnn(C)c3)c2)n1)c1cccc(C(F)(F)CO)c1F [Example 340, N-[(1R)-1-[3-(1,1-difluoro-2-hydroxy-ethyl)-2-fluoro-phenyl]ethyl]-1-[3-(1-methylpyrazol-4-yl)phenyl]-6-oxo-pyridazine-3-carboxamide]
19 | 1000 to 10000 | COc1ccc(-n2nc(C(=O)N[C@H](C)c3cccc(C(F)(F)CO)c3F)c(C3CC3)cc2=O)c(F)c1 [Example 366, 4-cyclopropyl-N-[(1R)-1-[3-(1,1-difluoro-2-hydroxy-ethyl)-2-fluorophenyl]ethyl]-1-(2-fluoro-4-methoxy-phenyl)-6-oxopyridazine-3-carboxamide]
20 | < 1000 | CC(=O)Nc1cc(=O)n(-c2ccccc2F)nc1C(=O)N[C@H](C)c1cccc(C(F)(F)COC(C)=O)c1F [Example 380, [2-[3-[(1R)-1-[[4-acetamido-1-(2-fluorophenyl)-6-oxo-pyridazine-3-carbonyl]amino]ethyl]-2-fluoro-phenyl]-2,2-difluoro-ethyl] acetate]
21 | < 1000 | C[C@@H](NC(=O)c1ccc(=O)n(-c2cccc(-c3cnn(C)c3)c2)n1)c1cc(N)cc(C(F)(F)F)c1 [Example 334, N-[(1R)-1-[3-amino-5-(trifluoromethyl)phenyl]ethyl]-1-[3-(1-methylpyrazol-4-yl)phenyl]-6-oxo-pyridazine-3-carboxamide]
22 | < 1000 | C[C@@H](NC(=O)c1nn(-c2ccccc2)c(=O)c2ccsc12)c1cc(N)cc(C(F)(F)F)c1 [Example 317, N-[(1R)-1-[3-amino-5-(trifluoromethyl)phenyl]ethyl]-4-oxo-5-phenyl-thieno[2,3-d]pyridazine-7-carboxamide]
23 | < 1000 | C[C@@H](NC(=O)c1nn(-c2ccccc2)c(=O)c2cc[nH]c12)c1cc(N)cc(C(F)(F)F)c1 [Example 308, N-[(1R)-1-[3-amino-5-(trifluoromethyl)phenyl]ethyl]-4-oxo-5-phenyl-1H-pyrrolo [2,3-d] pyridazine-7-carboxamide]
24 | < 1000 | CNCc1ccsc1-c1cccc([C@@H](C)NC(=O)c2ccc(=O)n(-c3ccccc3F)n2)c1 [Example 294, 1-(2-fluorophenyl)-N-[(1R)-1-[3-[3-(methylaminomethyl)-2-thienyl]phenyl]ethyl]-6-oxo-pyridazine-3-carboxamide]
25 | < 1000 | C[C@@H](NC(=O)c1ccc(=O)n(-c2cccc(-c3ccn(C(F)F)n3)c2)n1)c1cc(N)cc(C(F)(F)F)c1 [Example 344, N-[(1R)-1-[3-amino-5-(trifluoromethyl)phenyl]ethyl]-1-[3-[1-(difluoromethyl)pyrazol-3-yl]phenyl]-6-oxo-pyridazine-3-carboxamide]
26 | < 1000 | CNCc1cc(Cl)ccc1-c1ccc([C@@H](C)NC(=O)c2ccc(=O)n(-c3ccccc3F)c2)s1 [Example 282, N-[(1R)-1-[5-[4-chloro-2-(methylaminomethyl)phenyl]-2-thienyl]ethyl]-1-(2-fluorophenyl)-6-oxo-pyridine-3-carboxamide]

same assay, conditions: read-out: KRAS ^G12C::SOS1 PPI assay (IC50 range, Grade); maximum concentration 3 µM, 8 concentrations, three replicates

Row | Compound | IC50 [nM]
27 | N-[(1R)-1-[3-amino-5-(trifluoromethyl)phenyl]ethyl]-6-oxo-1-[3-(4-pyridyl)phenyl]pyridazine-3-carboxamide [Example 346] | < 1000
